Drawing on patent US20230219963A1, “PYRROLO[2,3-D]PYRIMIDINE DERIVATIVES” (Pfizer Inc., priority 2020, published 2023), this text covers IC50 for three compounds.

This test has as its target T1, JAK3 (Homo sapiens, UniProt P52333).
T1 sequence (P52333 1-1124): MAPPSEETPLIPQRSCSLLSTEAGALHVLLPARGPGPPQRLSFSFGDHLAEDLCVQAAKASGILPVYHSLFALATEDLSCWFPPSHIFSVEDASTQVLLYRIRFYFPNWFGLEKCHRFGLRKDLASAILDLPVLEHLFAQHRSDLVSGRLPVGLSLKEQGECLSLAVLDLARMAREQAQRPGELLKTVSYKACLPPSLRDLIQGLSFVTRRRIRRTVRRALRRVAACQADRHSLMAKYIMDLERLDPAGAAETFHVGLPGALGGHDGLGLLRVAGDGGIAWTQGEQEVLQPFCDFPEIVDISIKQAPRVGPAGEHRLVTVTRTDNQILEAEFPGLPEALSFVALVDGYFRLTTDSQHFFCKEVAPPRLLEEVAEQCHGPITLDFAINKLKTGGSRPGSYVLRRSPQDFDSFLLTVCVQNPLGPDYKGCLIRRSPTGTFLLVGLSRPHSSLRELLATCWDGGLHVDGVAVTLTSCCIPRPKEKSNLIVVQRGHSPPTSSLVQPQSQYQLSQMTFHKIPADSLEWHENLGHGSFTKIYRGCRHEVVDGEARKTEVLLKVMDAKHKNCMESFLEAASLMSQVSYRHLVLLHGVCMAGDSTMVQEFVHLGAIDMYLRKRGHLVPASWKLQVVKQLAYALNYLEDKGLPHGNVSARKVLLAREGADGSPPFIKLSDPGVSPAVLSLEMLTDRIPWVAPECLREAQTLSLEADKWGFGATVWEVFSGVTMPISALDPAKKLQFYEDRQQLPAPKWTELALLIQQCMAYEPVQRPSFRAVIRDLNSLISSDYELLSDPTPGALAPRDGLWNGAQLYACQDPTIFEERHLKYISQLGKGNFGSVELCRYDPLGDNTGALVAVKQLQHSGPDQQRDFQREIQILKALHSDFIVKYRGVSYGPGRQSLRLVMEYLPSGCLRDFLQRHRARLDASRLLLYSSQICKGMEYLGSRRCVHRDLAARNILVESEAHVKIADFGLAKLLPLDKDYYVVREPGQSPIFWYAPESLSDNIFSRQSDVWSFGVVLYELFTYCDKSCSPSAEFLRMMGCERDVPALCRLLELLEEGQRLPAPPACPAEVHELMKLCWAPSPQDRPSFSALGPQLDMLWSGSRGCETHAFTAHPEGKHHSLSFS
Briefly: JAK Caliper Enzyme Assay at 1 mM ATP (JAK3). The test is classed as biochemical. As to the method: JAK Caliper Enzyme Assay at 1 mM ATP
Test article was solubilized in dimethyl sulfoxide (DMSO) to a stock concentration of 30 mM. An 11-point half log dilution series was created in DMSO with a top concentration of 600 μM. […] The compound plates were diluted 1 to 60 resulting in a top final assay compound concentration of 10 μM and a 2% DMSO concentration. Test article and assay controls were added to a 384-well plate. Reaction mixtures contained 20 mM HEPES, pH 7.4, 10 mM magnesium chloride, 0.01% bovine serum albumin (BSA), 0.0005% Tween 20, 1 mM ATP and 1 μM peptide substrate. […] The assays were initiated by the addition of 20 nM JAK1, 1 nM JAK2, 1 nM JAK3 or 1 nM TYK2 enzyme and were incubated at room temperature for three hours for JAK1, 60 minutes for JAK2, 75 minutes for JAK3 or 135 minutes for TYK2. Enzyme concentrations and incubation times were optimized for each new enzyme preps and were modified slightly over time to ensure 20%-30% phosphorylation. The assays were stopped with a final concentration of 10 mM EDTA, 0.1% Coating Reagent and 100 mM HEPES, pH=7.4. The assay plates were placed on a Caliper Life Science Lab Chip 3000 (LC3000) instrument, and each well was sampled using appropriate separation conditions to measure the unphosphorylated and phosphorylated peptide.

Molecules are shown by their SMILES.

As to `C[C@H](O)CS(=O)(=O)N[C@H]1C[C@@H](N(C)c2ncnc3[nH]ccc23)C1` (single isomer, unassigned) [IA (M2)], the IC50 is above 10 µM.

In turn, `C[C@@H](O)CS(=O)(=O)N[C@H]1C[C@@H](N(C)c2ncnc3[nH]ccc23)C1` (single isomer, unassigned) [IC (M3)] returned an IC50 above 10 µM.

With `CN(c1ncnc2[nH]ccc12)[C@H]1C[C@@H](NS(=O)(=O)CCCO)C1` [IB (M1), 3-Hydroxy-N-(cis-3-(methyl(7H-pyrrolo[2,3-d]pyrimidin-4-yl)amino)cyclobutyl)propane-1-sulfonamide], the IC50 was above 10 µM.
